One block for each compound: values may come before it.
Legend:
[1] = tested on: human ovarian carcinoma NR− line (SKOV3), wild-type; assay: Cytotoxicity, 18 h drug exposure, SKOV3 NR− line; format: cell-based; conditions: Homo sapiens, SK-OV-3; SKOV3 cells, 18 h drug exposure; read-out: SKOV NR− IC50
Excerpt: (§1) The Chinese hamster fibroblast NR− line (T78-1) is a V79/4 Chinese hamster fibroblast transfected with an empty shuttle vector, while the NR+ line (T79-A3) is the corresponding NR transfectant. The human colon carcinoma NR− line (WIDR) is wild-type, while the NR+ line (WC14 10) is the corresponding NR transfectant. The human ovarian carcinoma NR− line (SKOV3) is wild-type, while the NR+ line (SC3.2) is the corresponding NR transfectant. EMT6 is a mouse mammary carcinoma line, and EN2A is the NR-transformed counterpart.

[2] = tested on: human ovarian carcinoma NR+ line (SC3.2), NR transfectant; assay: Cytotoxicity, 18 h drug exposure, SKOV NR+ line (SC3.2); format: cell-based; conditions: for IC50: Homo sapiens, SC3.2 cells, 18 h drug exposure, read-out: SKOV NR+ IC50
Excerpt: as §1

[3] = tested on: EN2A, NR-transformed counterpart of EMT6; assay: Cytotoxicity, 18 h drug exposure, EMT6 NR+ line (EN2A); format: cell-based, mouse; conditions: for IC50: Mus musculus, EMT6, EN2A cells, 18 h drug exposure, read-out: EMT6 NR+ IC50
Excerpt: as §1

[4] = tested on: Chinese hamster fibroblast NR+ line (T79-A3), NR transfectant; assay: Cytotoxicity, 18 h drug exposure, V79 NR+ line (T79-A3); format: cell-based; conditions: for IC50: Cricetulus griseus, Fibroblast, T79-A3 cells, 18 h drug exposure, read-out: V-79 NR+ IC50
Excerpt: as §1

[5] = tested on: human colon carcinoma NR+ line (WC14 10), NR transfectant; assay: Cytotoxicity, 18 h drug exposure, WiDr NR+ line (WC14 10); format: cell-based; conditions: for IC50: Homo sapiens, WiDr, WC14 10 cells, 18 h drug exposure, read-out: WiDr NR+ IC50
Excerpt: as §1

[6] = tested on: EMT6 mouse mammary carcinoma line; assay: Cytotoxicity, 18 h drug exposure, EMT6 NR− line; format: cell-based; conditions: Mus musculus; EMT6 cells, 18 h drug exposure; read-out: EMT6 NR− IC50
Excerpt: as §1

[7] = tested on: Chinese hamster fibroblast NR− line (T78-1), V79/4 transfected with an empty shuttle vector; assay: Cytotoxicity, 18 h drug exposure, V79 NR− line (T78-1); format: cell-based; conditions: Cricetulus griseus; T78-1 cells, 18 h drug exposure; read-out: V-79 NR− IC50
Excerpt: as §1

[8] = tested on: human colon carcinoma NR− line (WIDR), wild-type; assay: Cytotoxicity, 18 h drug exposure, WiDr NR− line; format: cell-based; conditions: Homo sapiens; WIDR cells, 18 h drug exposure; read-out: WiDr NR− IC50
Excerpt: as §1

melting point: 155 °C
SMILES: NC(=O)c1cc([N+](=O)[O-])c(Cl)cc1N1CC1

melting point: 216 °C
SMILES: NC(=O)c1ccc(Cl)c([N+](=O)[O-])c1N1CC1

SMILES: NC(=O)c1cc([N+](=O)[O-])cc([N+](=O)[O-])c1N1CC1 [Compound 14, 2-(aziridin-1-yl)-3,5-dinitrobenzamide]
IC50 [1]: 1700 µM
IC50 [2]: 6.1 µM
SKOV ratio of IC50s ([2]; SKOV3 vs SC3.2, inter-experiment average): 280
EMT6 ratio of IC50s ([3]; EMT6 vs EN2A, inter-experiment average): 626
IC50 [3]: 1.3 µM
IC50 [4]: 1.2 µM
V-79 ratio of IC50s ([4]; T78-1 vs T79-A3, inter-experiment average): 864
IC50 [5]: 13 µM
WiDr ratio of IC50s ([5]; WIDR vs WC14 10, inter-experiment average): 85
IC50 [6]: 769 µM
IC50 [7]: 1080 µM
IC50 [8]: 1080 µM

SMILES: NC(=O)c1cc([N+](=O)[O-])c(N2CC2)c([N+](=O)[O-])c1 [Compound 19, 4-(Aziridin-1-yl)-3,5-dinitrobenzamide]
IC50 [1]: > 20 µM
IC50 [2]: > 20 µM
IC50 [3]: > 20 µM
IC50 [4]: > 20 µM
IC50 [5]: > 20 µM
IC50 [6]: > 20 µM
IC50 [7]: > 20 µM
melting point: 228 to 231 °C
IC50 [8]: > 20 µM

— patent US6517836B1, “Nitrophenylaziridine compounds and their use as prodrugs” (Auckland Uniservices Limited, priority 1998, dated 2003)
